pIC50: −log10 of the molar value.
Experiments:
[1] = biological target: Amyloid-beta precursor protein (Homo sapiens, UniProt P05067); test: Inhibition of amyloid beta (1 to 40) (unknown origin) aggregation
Mus musculus [2] = organism: Mus musculus; test: Reduction in amyloid beta levels in Tg2576 mouse; type: functional
Mus musculus [3] = organism: Mus musculus; test: Reduction in amyloid beta plaques in Tg2576 mouse; type: functional

Sequence of Amyloid-beta precursor protein (P05067 whole entry): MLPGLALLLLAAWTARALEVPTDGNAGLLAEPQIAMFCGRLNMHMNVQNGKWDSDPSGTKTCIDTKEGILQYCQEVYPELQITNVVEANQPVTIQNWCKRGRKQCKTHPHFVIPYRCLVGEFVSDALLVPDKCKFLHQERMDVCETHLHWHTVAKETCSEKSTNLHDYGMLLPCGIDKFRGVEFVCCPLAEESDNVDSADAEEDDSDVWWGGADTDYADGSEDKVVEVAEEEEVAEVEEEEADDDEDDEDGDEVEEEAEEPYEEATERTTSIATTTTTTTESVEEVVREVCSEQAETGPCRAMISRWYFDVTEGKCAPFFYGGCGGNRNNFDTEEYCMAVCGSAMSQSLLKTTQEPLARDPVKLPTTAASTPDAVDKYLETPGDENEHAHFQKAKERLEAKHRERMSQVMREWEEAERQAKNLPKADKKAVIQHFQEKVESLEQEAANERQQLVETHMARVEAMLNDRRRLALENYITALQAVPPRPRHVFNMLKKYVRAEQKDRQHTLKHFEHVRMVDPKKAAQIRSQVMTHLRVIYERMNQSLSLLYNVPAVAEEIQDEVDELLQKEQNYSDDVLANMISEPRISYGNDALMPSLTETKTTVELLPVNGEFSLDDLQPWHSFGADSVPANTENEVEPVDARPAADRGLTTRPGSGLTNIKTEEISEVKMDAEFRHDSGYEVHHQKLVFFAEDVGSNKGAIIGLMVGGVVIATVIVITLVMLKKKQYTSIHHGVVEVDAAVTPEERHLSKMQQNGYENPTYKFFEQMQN

| Compound | pIC50 [1] | inhibition (INH) (Mus musculus [2]) [%] | inhibition (INH) (Mus musculus [3]) [%] |
| --- | --- | --- | --- |
| CNc1ccc(C(=O)NC(CCCCCNC(=O)OCc2ccccc2)C(=O)O)cc1 (centres undefined) | 5.56 | – | – |
| O=C(O[C@@H]1Cc2c(O)cc(O)cc2O[C@@H]1c1cc(O)c(O)c(O)c1)c1cc(O)c(O)c(O)c1 [EPIGALOCATECHIN GALLATE] | – | 50 | 50 |
| O=C(Cc1ccccc1)NC(CSSCC(NC(=O)Cc1ccccc1)C(=O)O)C(=O)O (centres undefined) | 5.71 | – | – |
